Results on 1 substance are retold here after article PMC6631481, “De Novo Design and In Vitro Testing of Antimicrobial Peptides against Gram-Negative Bacteria” (Pharmaceuticals, 2019).

No end group written: not given here.

Holding throughout (type): cell-based
In assay [1] the test system is Escherichia coli ATCC 25922. On the procedure: The MICs of the designed cationic peptides against Escherichia coli ATCC 25,922 strains were determined by the broth microdilution method, as described by Hancock et al.. All MIC evaluations were performed using Luria Bertani (LB) medium. Briefly, a range of each peptide concentrations (100 µg/mL, 50 µg/mL, 25 µg/mL, 12.5 µg/mL, 6.25 µg/mL, 3.125 µg/mL) was prepared by serial dilution in NaCl-depleted LB medium and added to an equal volume (250 µl) of exponentially grown bacterial culture, so that final bacterial suspension contained 5 × 10^5 CFU/mL. The samples were incubated in 2 mL polypropylene microtubes at 37 °C overnight at 300 rpm. The MIC was defined as the concentration at which no microbial growth was detected spectrophotometrically, via readings of optical density (OD) at 600 nm (Biotek ELX800 microplate reader). Growth medium containing only bacterial cells was used as a negative control. Each MIC test was carried out in two replicates and repeated three times.

In another assay the test system is E. cloacae BB2013-32. The assay can be described thus: microbe, parasite or virus in culture. The following applies: BB2013-32. An excerpt: (§1) The following strains were used: P. aeruginosa (ATCC 27,853 and resistant strains: J4228 (R: Meropenem), BB2013-100 (FQR)); A. baumannii (Josh 28 and resistant strain Josh 230 (OXA-48); E. cloacae (resistant strains: BB2012-181(R: Meropenem), BB2013-32 (FQR)); E. aerogenes (resistant strain St. L P63 (NDM-1), E. asburiae/cloacae (resistant strain St. L P23 (NDM-1), K. pneumonia (J3702 and resistant strains: BB2009-209 (KPC-2), Oschner KP-1), Escherichia coli (BW25113 (7636) and resistant strains: JW55034 (11430) (Tol neg), BB2013-30 (R:carbapenem), ARLG-1012 (NDM)). Susceptibility testing was performed using non-cation adjusted MHB broth and polypropylene plates. Testing was also done in the presence and absence of acetic acid and BSA.

A further assay concerns E. coli ARLG-1012. Put plainly: microbe, parasite or virus in culture. Particulars: ARLG-1012.
Excerpt: as §1

The subject of a further assay is A. baumannii Josh 230. The assay can be described thus: microbe, parasite or virus in culture. The following applies: Josh 230.
Excerpt: as §1

Another assay deals with K. pneumoniae J3702. Put plainly: microbe, parasite or virus in culture. Particulars: J3702.
Excerpt: as §1

A further assay concerns P. aeruginosa BB2013-100. The assay can be described thus: microbe, parasite or virus in culture. The following applies: BB2013-100.
Excerpt: as §1

For the next assay, the system named is P. aeruginosa ATCC 27853. Put plainly: microbe, parasite or virus in culture. The following applies: ATCC 27853.
Excerpt: as §1

The subject of another assay is P. aeruginosa J4228. The assay can be described thus: microbe, parasite or virus in culture. Particulars: J4228.
Excerpt: as §1

In another assay the test system is A. baumannii Josh 28. The assay can be described thus: microbe, parasite or virus in culture. Particulars: Josh 28.
Excerpt: as §1

A further assay concerns E. coli JW55034 (11430). Put plainly: microbe, parasite or virus in culture. The following applies: phenotype Tol neg, non-cation adjusted MHB broth, polypropylene plates, meropenem by standard CLSI method.
Excerpt: as §1

The test system of another assay is E. coli BB2013-30. The assay can be described thus: microbe, parasite or virus in culture. Particulars: BB2013-30.
Excerpt: as §1

Another assay concerns K. pneumoniae BB2009-209. Put plainly: microbe, parasite or virus in culture. The following applies: BB2009-209.
Excerpt: as §1

The subject of the next assay is E. aerogenes St. L P63. Put plainly: microbe, parasite or virus in culture. The following applies: St. L P63.
Excerpt: as §1

The next assay deals with E. cloacae BB2012-181. The assay can be described thus: microbe, parasite or virus in culture. The following applies: BB2012-181.
Excerpt: as §1

For assay [2], the system named is K. pneumoniae Oschner KP-1. The assay can be described thus: microbe, parasite or virus in culture. The following applies: Oschner KP-1.
Excerpt: as §1

The subject of another assay is E. coli BW25113 (7636). Put plainly: microbe, parasite or virus in culture. The following applies: BW25113.
Excerpt: as §1

Assay [3] relates to E. asburiae/cloacae St. L P23. The assay can be described thus: organism not typed.
Excerpt: as §1

Regarding GWAKLITKAIKKI-NH2 [SP3], in [1], the “MIC At NaCl” value was 25 to 50 µg/mL. For the same substance, the “MIC Without NaCl” value in [1] lay in the range of 12.5 to 25 µg/mL. Further, the MIC in the assay on E. cloacae BB2013-32 amounted to 16 µg/mL; in the assay on E. coli ARLG-1012, 4 µg/mL; against A. baumannii Josh 230, 16 µg/mL; in the assay on K. pneumoniae J3702, 16 µg/mL; against P. aeruginosa BB2013-100, 32 µg/mL; in the assay on P. aeruginosa ATCC 27853, 8 µg/mL. Besides, the MIC in the assay on P. aeruginosa J4228 is 16 µg/mL; in the assay on A. baumannii Josh 28 it was 4 µg/mL; against E. coli JW55034 (11430), 4 µg/mL; against E. coli BB2013-30, 8 µg/mL; in the assay on K. pneumoniae BB2009-209, greater than 32 µg/mL; against E. aerogenes St. L P63, 16 µg/mL. The MIC in the assay with E. cloacae BB2012-181 is 16 µg/mL; in [2] it was greater than 32 µg/mL; in the assay on E. coli BW25113 (7636) it was 4 µg/mL; in assay [3], 32 µg/mL.
